Laboratory results taken from ChEMBL document CHEMBL6109088 (J Med Chem, 2025).

Key:
in vivo [1] = settings: male, cynomolgus monkey, po, 10 mg/kg
in vivo [2] = settings: male, cynomolgus monkey, po, 10 mg/kg; remark: listed apart in the source
in vitro [3] = settings: dog, MDCK
in vivo [4] = settings: male, Wistar Hannover, rat, iv, 1 mg/kg
in vivo [5] = settings: rat, po
in vivo [6] = settings: male, cynomolgus monkey, iv, 1 mg/kg
in vivo [7] = settings: male, Wistar Hannover, rat, po, 10 mg/kg
in vivo [8] = settings: male, cynomolgus monkey, iv, 1 mg/kg; remark: listed apart in the source
physchem = settings: octanol/water
in vivo [9] = settings: male, Wistar Hannover, rat, iv, 1 mg/kg; remark: listed apart in the source
in vivo [10] = settings: male, Wistar Hannover, rat, po, 10 mg/kg; remark: listed apart in the source
in vitro [11] = settings: human, liver microsomes
in vivo [12] = settings: male, Beagle, dog, po, 10 mg/kg
in vivo [13] = settings: male, Wistar Hannover, rat, po, 10 mg/kg; remark: listed apart in the source
in vivo [14] = settings: male, Beagle, dog, iv, 1 mg/kg
in vivo [15] = settings: male, Wistar Hannover, rat, iv, 1 mg/kg; remark: listed apart in the source
in vivo [16] = settings: male, Beagle, dog, po, 10 mg/kg; remark: listed apart in the source
in vivo [17] = settings: male, Beagle, dog, plasma, iv, 1 mg/kg
in vivo [18] = settings: male, Wistar Hannover, rat, iv, 1 mg/kg; remark: listed apart in the source
in vivo [19] = settings: male, Wistar Hannover, rat, po, 10 mg/kg; remark: listed apart in the source
in vivo [20] = settings: male, cynomolgus monkey, po, 10 mg/kg; remark: listed apart in the source
SARS-CoV-2 = experiment: microbe, parasite or virus in culture; settings: Severe acute respiratory syndrome coronavirus 2, USA-WA1/2020, Vero C1008
in vivo [21] = settings: male, Wistar Hannover, rat, po, 10 mg/kg; remark: listed apart in the source
in vivo [22] = settings: male, Beagle, dog, iv, 1 mg/kg; remark: listed apart in the source
in vivo [23] = settings: male, Wistar Hannover, rat, plasma, iv, 1 mg/kg
in vivo [24] = settings: male, cynomolgus monkey, iv, 1 mg/kg; remark: listed apart in the source
in vivo [25] = settings: male, Beagle, dog, po, 10 mg/kg; remark: listed apart in the source
in vivo [26] = settings: male, cynomolgus monkey, po, 10 mg/kg; remark: listed apart in the source
in vivo [27] = settings: male, cynomolgus monkey, plasma, iv, 1 mg/kg

## CC(C)[C@H](NC(=O)C(F)(F)F)C(=O)N1C[C@H]2[C@@H]([C@H]1C(=O)N[C@@H](C[C@@H]1CCNC1=O)C(=O)c1nc3ccccc3s1)C2(C)C
In vivo [1]
  AUC(0-inf): 505 ng·h/mL
In vivo [2]
  Cmax: 331 ng/mL
In vitro [3]
  Papp A→B: 13.1 ×10⁻⁶ cm/s
In vivo [4]
  AUC(0-inf) at 4 h: 538 ng·h/mL
In vivo [5]
  bioavailability: 54%
In vivo [6]
  Vd: 0.58 L/kg
In vivo [7]
  half-life at 4 h: 3.39 h
In vivo [8]
  AUC(0-inf): 977 ng·h/mL
physchem
  logD: 3
In vivo [9]
  AUC(0-inf) at 4 h: 632 ng·h/mL
In vivo [10]
  AUC(0-inf) at 4 h: 2310 ng·h/mL
In vitro [11]
  microsomal CLint: 30.3 µL/min/mg
In vivo [12]
  Tmax: 0.75 h
In vivo [13]
  Cmax at 4 h: 521 ng/mL
In vivo [14]
  Vd: 1.1 L/kg
In vivo [15]
  Vd at 4 h: 2.16 L/kg
In vivo [16]
  Cmax: 383 ng/mL
In vivo [17]
  clearance: 20.7 mL/min/kg
In vivo [18]
  half-life at 4 h: 6.8 h
In vivo [19]
  bioavailability at 4 h: 54.3%
In vivo [20]
  bioavailability: 7.85%
SARS-CoV-2
  EC50: 85.3 nM
In vivo [21]
  Tmax at 4 h: 0.67 h
In vivo [22]
  half-life: 0.9 h
In vivo [23]
  clearance at 4 h: 31 mL/min/kg
In vivo [24]
  half-life: 1.08 h
In vivo [25]
  half-life: 4.43 h
In vivo [26]
  Tmax: 1.5 h
In vivo [27]
  clearance: 26 mL/min/kg

## CC(C)[C@H](NS(C)(=O)=O)C(=O)N1C[C@H]2[C@@H]([C@H]1C(=O)N[C@@H](C[C@@H]1CCNC1=O)C(=O)c1nc3ccccc3s1)C2(C)C
In vitro [3]
  Papp A→B: 1.7 ×10⁻⁶ cm/s
In vivo [5]
  bioavailability: 7%
physchem
  logD: 2.4
In vitro [11]
  microsomal CLint: 70 µL/min/mg
SARS-CoV-2
  EC50: 909 nM

## CC(C)[C@H](NC(=O)C(F)(F)F)C(=O)N1C[C@H]2[C@@H]([C@H]1C(=O)N[C@@H](C[C@@H]1CCNC1=O)C(=O)c1nc3cc(C(F)(F)F)ccc3s1)C2(C)C
In vitro [3]
  Papp A→B: 8.8 ×10⁻⁶ cm/s
In vitro [11]
  microsomal CLint: 45.3 µL/min/mg
SARS-CoV-2
  EC50: 64.8 nM

## CN(C)C(=O)N[C@H](C(=O)N1C[C@H]2[C@@H]([C@H]1C(=O)N[C@H](C#N)C[C@@H]1CCNC1=O)C2(C)C)C(C)(C)C
In vitro [3]
  Papp A→B: 0.383 ×10⁻⁶ cm/s
In vitro [11]
  microsomal CLint: 22.2 µL/min/mg
SARS-CoV-2
  EC50: 1780 nM

## CC(C)[C@H](NC(=O)C(F)(F)F)C(=O)N1C[C@H]2[C@@H]([C@H]1C(=O)N[C@@H](C[C@@H]1CCNC1=O)C(=O)c1nc3ccccc3o1)C2(C)C
In vitro [3]
  Papp A→B: 2.1 ×10⁻⁶ cm/s
In vivo [5]
  bioavailability: 18%
In vitro [11]
  microsomal CLint: 7.3 µL/min/mg
SARS-CoV-2
  EC50: 207 nM

## CC(C)(C)[C@H](NS(C)(=O)=O)C(=O)N1C[C@H]2[C@@H]([C@H]1C(=O)N[C@H](C#N)C[C@@H]1CCNC1=O)C2(C)C
In vitro [3]
  Papp A→B: < 0.193 ×10⁻⁶ cm/s
In vivo [5]
  bioavailability: < 1%
In vitro [11]
  microsomal CLint: 11.4 µL/min/mg
SARS-CoV-2
  EC50: 540 nM

## COc1ccc2nc(C(=O)[C@H](C[C@@H]3CCNC3=O)NC(=O)[C@@H]3[C@@H]4[C@H](CN3C(=O)[C@@H](NC(=O)C(F)(F)F)C(C)C)C4(C)C)sc2c1
In vitro [3]
  Papp A→B: 13.8 ×10⁻⁶ cm/s
In vitro [11]
  microsomal CLint: 20.7 µL/min/mg
SARS-CoV-2
  EC50: 611 nM

## CC(C)[C@H](NC(=O)C(F)(F)F)C(=O)N1C[C@H]2[C@@H]([C@H]1C(=O)N[C@@H](C[C@@H]1CCNC1=O)C(=O)c1noc(-c3ccccc3)n1)C2(C)C
In vitro [3]
  Papp A→B: 3.5 ×10⁻⁶ cm/s
In vitro [11]
  microsomal CLint: 40.5 µL/min/mg
SARS-CoV-2
  EC50: 194 nM

## CC(C)[C@H](NC(=O)C(F)(F)F)C(=O)N1C[C@H]2[C@@H]([C@H]1C(=O)N[C@@H](C[C@@H]1CCNC1=O)C(=O)c1noc(C(C)(C)C)n1)C2(C)C
In vitro [3]
  Papp A→B: 0.5 ×10⁻⁶ cm/s
In vitro [11]
  microsomal CLint: < 7 µL/min/mg
SARS-CoV-2
  EC50: 625 nM

## COc1cccc2[nH]c(C(=O)N[C@@H](CC(C)(C)C)C(=O)N[C@@H](C[C@@H]3CCNC3=O)C(=O)c3nc4ccccc4s3)cc12
In vitro [3]
  Papp A→B: 4.3 ×10⁻⁶ cm/s
In vivo [5]
  bioavailability: < 1%
physchem
  logD: 4
In vitro [11]
  microsomal CLint: 350 µL/min/mg
SARS-CoV-2
  EC50: 383 nM

## CC(C)(C)[C@H](NC(=O)CC(F)(F)F)C(=O)N1C[C@H]2[C@@H]([C@H]1C(=O)N[C@H](C#N)C[C@@H]1CCNC1=O)C2(C)C
In vitro [3]
  Papp A→B: 0.916 ×10⁻⁶ cm/s
In vitro [11]
  microsomal CLint: 12.7 µL/min/mg
SARS-CoV-2
  EC50: 850 nM

## COc1cccc2[nH]c(C(=O)N[C@@H](CC(C)C)C(=O)N[C@@H](C[C@@H]3CCNC3=O)C(=O)CO)cc12 [PF-00835231]
In vitro [3]
  Papp A→B: < 0.207 ×10⁻⁶ cm/s
In vivo [5]
  bioavailability: < 0.5%
physchem
  logD: 1.7
In vitro [11]
  microsomal CLint: 7 µL/min/mg
